Patent US20090143317A1, “Quercetin Glycoside Composition and Method of Preparing the Same” (Suntory Limited, priority 2004, published 2009)

Experiments:
[1] = Measurement of migration into the blood (orally administered in vivo absorbability); set-up: species or system SD male rats; details: rat, po, 150 umol/kg
Protocol: Blood was collected from the tail vein 0 minutes (before the administration), 30 minutes, 1 hour, and 3 hours after the administration, and heparin was added thereto. Centrifugation was then performed, and, from the supernatant, heparin plasma samples were prepared. The concentrations of quercetin-glucuronide conjugate and quercetin in the prepared heparin plasma samples were measured by HPLC under the following conditions. AUC (Area under the curve) (0 to 3 hr) (μg/ml·hr) was then calculated based on the area under the curve of the plasma concentration of quercetin-glucuronide conjugate (μg/ml) and the area under the curve of the plasma concentration of quercetin (μg/ml). Quercetin-glucuronide conjugate and quercetin are both in vivo metabolites of isoquercitrin. […] Subsequently, in the same manner as in Experiment 1, plasma was prepared, and the plasma concentration of quercetin-glucuronide conjugate and that of quercetin were measured by HPLC. […] Subsequently, in the same manner as in Experiment 1, plasma was prepared, and the plasma concentration of quercetin-glucuronide conjugate and that of quercetin were measured by HPLC. AUC (Area under the curve) (0 to 3 hr) (μg/ml·hr) was then calculated based on the area under the curve of the plasma concentration of quercetin-glucuronide conjugate (μg/ml) and the area under the curve of the plasma concentration of quercetin (μg/ml). […]

[2] = in vivo; cited from earlier work

## O=c1c(O[C@@H]2O[C@H](CO)[C@@H](O)[C@H](O)[C@H]2O)c(-c2ccc(O)c(O)c2)oc2cc(O)cc(O)c12 [IQC, quercetin 3-O-μ-D-glucopyranoside]
[1]
  migration into the blood (orally administered in vivo absorbability), AUC (0 to 3 hr) of plasma quercetin-glucuronide conjugate plus quercetin: reduce absorbability
[2]
  absorbability: higher absorbability than quercetin and rutin

## O=c1c(OC2OC(CO)C(OC3OC(CO)C(O)C(O)C3O)C(O)C2O)c(-c2ccc(O)c(O)c2)oc2cc(O)cc(O)c12 (centres unmarked) [IQC-G1]
[1]
  migration into the blood (orally administered in vivo absorbability), AUC (0 to 3 hr) of plasma quercetin-glucuronide conjugate plus quercetin: higher absorbability in this order

## O=c1c(O[C@@H]2O[C@H](CO)[C@@H](O)[C@H](O)[C@H]2O)c(-c2ccc(O[C@@H]3O[C@H](CO)[C@@H](O)[C@H](O)[C@H]3O)c(O)c2)oc2cc(O)cc(O)c12 [Quercetin-3,4′-β-D-glucoside]
[2]
  absorbability: higher absorbability

## O=c1c(O)c(-c2ccc(O[C@@H]3O[C@H](CO)[C@@H](O)[C@H](O)[C@H]3O)c(O)c2)oc2cc(O)cc(O)c12 [Quercetin-4′-β-D-glucoside]
[2]
  absorbability: higher absorbability
